Source: PMC8294803, “A Roadmap to the Structure-Related Metabolism Pathways of Per- and Polyfluoroalkyl Substances in the Early Life Stages of Zebrafish (Danio rerio)” (Environmental Health Perspectives, 2021)
Where two headings read alike, the source gives them in different places.

Test system: zebrafish embryos
[1] = 5μM through 120 hpf, malformation rate

In the case of `FC(F)=C(F)OC(F)(F)C(F)(F)C(F)(F)F` [compound 53, Heptafluoropropyl trifluorovinyl ether], the “pericardial oedemata, Mean” value [1] is reported as 0.00%, the “spinal curvature, Mean” value [1] is reported as 1.11% and the “tail dysplasia, Mean” value [1] is reported as 0.00%. For the same compound, the “Mortality (%)” value (5 µM, exposure through 120 hpf) was 2.2%.

For `FC(F)OCC(F)(F)C(F)(F)F` [compound 52, Difluoromethyl 1H,1H-perfluoropropyl], the “pericardial oedemata, Mean” value [1] was 1.11%, the “spinal curvature, Mean” value [1] was 0.00% and the “tail dysplasia, Mean” value [1] was 0.00%. For the same compound, the “Mortality (%)” value (5 µM, exposure through 120 hpf) was 2.2%.

In the case of `NCC(F)(F)C(F)(F)C(F)(F)C(F)(F)F` [compound 68, 1H,1H-Perfluoropentylamine], the “pericardial oedemata, Mean” value [1] is reported as 0.00%, the “spinal curvature, Mean” value [1] is reported as 0.00% and the “tail dysplasia, Mean” value [1] is reported as 0.00%. The “Mortality (%)” value (5 µM, exposure through 120 hpf) was 1.1%.

In the case of `FCOC(C(F)(F)F)C(F)(F)F` [compound 3, Sevoflurane, reference compound], the “pericardial oedemata, Mean” value [1] is reported as 0.00%, the “spinal curvature, Mean” value [1] is reported as 2.22% and the “tail dysplasia, Mean” value [1] is reported as 0.00%. The “Mortality (%)” value (5 µM, exposure through 120 hpf) was 1.1%.

In the case of `NC(O)(C(F)(F)F)C(F)(F)F` [compound 33, 2-Aminohexafluoropropan-2-ol], the “pericardial oedemata, Mean” value [1] is reported as 0.00%, the “spinal curvature, Mean” value [1] is reported as 0.00% and the “tail dysplasia, Mean” value [1] is reported as 0.00%. For the same compound, the “Mortality (%)” value (5 µM, exposure through 120 hpf) was 7.8%.

For `CCN(CCO)S(=O)(=O)C(F)(F)C(F)(F)C(F)(F)C(F)(F)C(F)(F)C(F)(F)C(F)(F)C(F)(F)F` [compound 9, N-Ethyl-N-(2-hydroxyethyl)perfluorooctanesulfonamide], the “pericardial oedemata, Mean” value [1] was 1.11%, the “spinal curvature, Mean” value [1] was 0.00% and the “tail dysplasia, Mean” value [1] was 0.00%. For the same compound, the “Mortality (%)” value (5 µM, exposure through 120 hpf) was 1.1%.

For `C=CC(F)(F)C(F)(F)C(F)(F)C(F)(F)F` [compound 59, 1H,1H,2H-Perfluoro-1-hexene], the “pericardial oedemata, Mean” value [1] was 0.00%, the “spinal curvature, Mean” value [1] was 1.11% and the “tail dysplasia, Mean” value [1] was 0.00%. The “Mortality (%)” value (5 µM, exposure through 120 hpf) was 4.4%.

In the case of `O=C(OC(=O)C(F)(F)C(F)(F)F)C(F)(F)C(F)(F)F` [compound 43, Pentafluoropropanoic anhydride], the “pericardial oedemata, Mean” value [1] is reported as 4.44%, the “spinal curvature, Mean” value [1] is reported as 0.00% and the “tail dysplasia, Mean” value [1] is reported as 4.44%. The “Mortality (%)” value (5 µM, exposure through 120 hpf) was 5.6%.

With `O=CC(F)(F)C(F)(F)C(F)(F)C(F)F` [compound 72, 5H-Perfluoropentanal] the “pericardial oedemata, Mean” value [1] was 0.00%, the “spinal curvature, Mean” value [1] was 0.00% and the “tail dysplasia, Mean” value [1] was 0.00%. The “Mortality (%)” value (5 µM, exposure through 120 hpf) was 3.3%.

In the case of `C=CC(F)(C(F)(F)F)C(F)(F)C(F)(F)F` (stereo not shown) [compound 25, 2-Vinylperfluorobutane], the “pericardial oedemata, Mean” value [1] is reported as 0.00%, the “spinal curvature, Mean” value [1] is reported as 0.00% and the “tail dysplasia, Mean” value [1] is reported as 0.00%. The “Mortality (%)” value (5 µM, exposure through 120 hpf) was 1.1%.

With `FC(F)(F)C(F)(F)CNCC(F)(F)C(F)(F)F` [compound 45, Bis(1H,1H-perfluoropropyl)amine] the “pericardial oedemata, Mean” value [1] was 1.11%, the “spinal curvature, Mean” value [1] was 0.00% and the “tail dysplasia, Mean” value [1] was 1.11%. For the same compound, the “Mortality (%)” value (5 µM, exposure through 120 hpf) was 2.2%.

`OCCC(F)(F)C(F)(F)C(F)(F)C(F)(F)F` [compound 41, 4:2 Fluorotelomer alcohol] was tested, and the “pericardial oedemata, Mean” value [1] was 3.33%, the “spinal curvature, Mean” value [1] was 0.00% and the “tail dysplasia, Mean” value [1] was 0.00%. The “Mortality (%)” value (5 µM, exposure through 120 hpf) was 0%.

For `OCCC(F)(F)C(F)(F)C(F)(F)C(F)(F)C(F)(F)C(F)(F)C(F)(F)C(F)(F)F` [compound 64, 8:2 Fluorotelomer alcohol], the “pericardial oedemata, Mean” value [1] was 0.00%, the “spinal curvature, Mean” value [1] was 2.22% and the “tail dysplasia, Mean” value [1] was 0.00%. For the same compound, the “Mortality (%)” value (5 µM, exposure through 120 hpf) was 3.3%.

In the case of `OC(O)(C(F)C(O)(O)C(F)(F)F)C(F)(F)F` [compound 66, 3H-Perfluoro-2,2,4,4-tetrahydroxypentane], the “pericardial oedemata, Mean” value [1] is reported as 0.00%, the “spinal curvature, Mean” value [1] is reported as 0.00% and the “tail dysplasia, Mean” value [1] is reported as 0.00%. The “Mortality (%)” value (5 µM, exposure through 120 hpf) was 1.1%.

For `O=S(=O)(F)C(F)(F)C(F)(F)C(F)(F)C(F)(F)F` [compound 8, Perfluorobutanesulfonyl fluoride], the “pericardial oedemata, Mean” value [1] was 0.00%, the “spinal curvature, Mean” value [1] was 1.11% and the “tail dysplasia, Mean” value [1] was 3.33%. For the same compound, the “Mortality (%)” value (5 µM, exposure through 120 hpf) was 2.2%.

In the case of `O=C(O)C(F)(OC(F)(F)C(F)(F)C(F)(F)F)C(F)(F)F` (stereo not shown) [compound 37, Perfluoro-2-methyl-3-oxahexanoic acid], the “pericardial oedemata, Mean” value [1] is reported as 2.22%, the “spinal curvature, Mean” value [1] is reported as 0.00% and the “tail dysplasia, Mean” value [1] is reported as 1.11%. The “Mortality (%)” value (5 µM, exposure through 120 hpf) was 1.1%.

`O=CC(F)(F)C(F)(F)C(F)(F)F` [compound 42, Perfluorobutyraldehyde] was tested, and the “pericardial oedemata, Mean” value [1] was 2.22%, the “spinal curvature, Mean” value [1] was 2.22% and the “tail dysplasia, Mean” value [1] was 0.00%. For the same compound, the “Mortality (%)” value (5 µM, exposure through 120 hpf) was 0%.

For `CC(=O)C(F)(F)C(F)(F)F` [compound 55, Methyl perfluoroethyl ketone], the “pericardial oedemata, Mean” value [1] was 1.11%, the “spinal curvature, Mean” value [1] was 2.22% and the “tail dysplasia, Mean” value [1] was 0.00%. The “Mortality (%)” value (5 µM, exposure through 120 hpf) was 2.2%.

With `FC(F)(F)COC(OCC(F)(F)F)OCC(F)(F)F` [compound 1, tris(Trifluoroethoxy)methane] the “pericardial oedemata, Mean” value [1] was 2.22%, the “spinal curvature, Mean” value [1] was 2.22% and the “tail dysplasia, Mean” value [1] was 2.22%. The “Mortality (%)” value (5 µM, exposure through 120 hpf) was 0%.

`COC(F)(F)C(F)(C(F)(F)F)C(F)(F)F` [compound 44, Perfluoroisobutyl methyl ether] was tested, and the “Mortality (%)” value (in vivo) was 1.1, the “pericardial oedemata, Mean” value (in vivo) was 1.11% and the “spinal curvature, Mean” value (in vivo) was 1.11%. For the same compound, the “tail dysplasia, Mean” value (in vivo) was 0.00%.

In the case of `CC=CC(F)(F)C(F)(F)C(F)(F)F` [compound 22, 1-Propenylperfluoropropane], the “pericardial oedemata, Mean” value [1] is reported as 0.00%, the “spinal curvature, Mean” value [1] is reported as 0.00% and the “tail dysplasia, Mean” value [1] is reported as 0.00%. The “Mortality (%)” value (5 µM, exposure through 120 hpf) was 3.3%.

`CC(O)C(F)(F)C(F)(F)F` (stereo not shown) [compound 62, 1-Pentafluoroethylethanol] was tested, and the “pericardial oedemata, Mean” value [1] was 1.11%, the “spinal curvature, Mean” value [1] was 0.00% and the “tail dysplasia, Mean” value [1] was 1.11%. The “Mortality (%)” value (5 µM, exposure through 120 hpf) was 6.7%.

In the case of `CCOC(F)(F)C(F)(F)C(F)(F)C(F)(F)F` [compound 65, Ethyl perfluorobutyl ether], the “pericardial oedemata, Mean” value [1] is reported as 0.00%, the “spinal curvature, Mean” value [1] is reported as 0.00% and the “tail dysplasia, Mean” value [1] is reported as 0.00%. The “Mortality (%)” value (5 µM, exposure through 120 hpf) was 0%.

For `O=C(F)C(F)(F)C(F)(F)C(F)(F)C(F)F` [compound 51, 5H-Octafluoropentanoyl fluoride], the “Mortality (%)” value (in vivo) was 0, the “pericardial oedemata, Mean” value (in vivo) was 1.11% and the “spinal curvature, Mean” value (in vivo) was 0.00%. The “tail dysplasia, Mean” value (in vivo) was 3.33%.

`NC(C(F)(F)F)C(F)(F)F` [compound 71, 2-Amino-2H-perfluoropropane] was tested, and the “pericardial oedemata, Mean” value [1] was 0.00%, the “spinal curvature, Mean” value [1] was 0.00% and the “tail dysplasia, Mean” value [1] was 0.00%. The “Mortality (%)” value (5 µM, exposure through 120 hpf) was 3.3%.

`FC(F)=C(F)C(F)(F)C(F)(F)C(F)(F)C(F)F` [compound 69, 6H-Perfluorohex-1-ene] was tested, and the “pericardial oedemata, Mean” value [1] was 0.00%, the “spinal curvature, Mean” value [1] was 0.00% and the “tail dysplasia, Mean” value [1] was 0.00%. The “Mortality (%)” value (5 µM, exposure through 120 hpf) was 0%.

For `OCC(F)(F)C(F)(F)C(F)(F)F` [compound 11, Heptafluorobutanol], the “pericardial oedemata, Mean” value [1] was 4.44%, the “spinal curvature, Mean” value [1] was 2.22% and the “tail dysplasia, Mean” value [1] was 0.00%. The “Mortality (%)” value (5 µM, exposure through 120 hpf) was 1.1%.

In the case of `C=CCOC(F)(C(F)(F)F)C(F)(F)F` [compound 18, Allyl perfluoroisopropyl ether], the “pericardial oedemata, Mean” value [1] is reported as 0.00%, the “spinal curvature, Mean” value [1] is reported as 0.00% and the “tail dysplasia, Mean” value [1] is reported as 0.00%. The “Mortality (%)” value (5 µM, exposure through 120 hpf) was 3.3%.

`O=C(F)C(F)(F)C(F)(F)C(F)(F)C(=O)F` [compound 63, Perfluoroglutaryl difluoride] was tested, and the “pericardial oedemata, Mean” value [1] was 0.00%, the “spinal curvature, Mean” value [1] was 0.00% and the “tail dysplasia, Mean” value [1] was 0.00%. For the same compound, the “Mortality (%)” value (5 µM, exposure through 120 hpf) was 5.6%.

With `FC(F)(F)COCC(F)(F)F` [compound 27, Flurothyl, reference compound] the “pericardial oedemata, Mean” value [1] was 2.22%, the “spinal curvature, Mean” value [1] was 0.00% and the “tail dysplasia, Mean” value [1] was 0.00%. The “Mortality (%)” value (5 µM, exposure through 120 hpf) was 1.1%.

With `CC(F)(F)CC(F)(F)F` [compound 29, 1,1,1,3,3-Pentafluorobutane] the “pericardial oedemata, Mean” value [1] was 0.00%, the “spinal curvature, Mean” value [1] was 0.00% and the “tail dysplasia, Mean” value [1] was 0.00%. For the same compound, the “Mortality (%)” value (5 µM, exposure through 120 hpf) was 3.3%.
